Measurements: article doi:10.1101/2024.08.19.608619, “Discovery of potent SARS-CoV-2 nsp3 macrodomain inhibitors uncovers lack of translation to cellular antiviral response” (bioRxiv, 2024)
Values after ≈ are worked out from the molar mass of the structure shown.

Columns and labels:
[1] = Hepatic microsomal stability, HLM; format: in vitro ADME, human; conditions: In vitro human liver microsomal stability; for perc_remaining_no_cofactor: no cofactor
[2] = In vitro kinetic solubility; conditions: In vitro kinetic solubility, ph 7.4
LogD = conditions: pH 7.4; In vitro LogD
[3] = Hepatic microsomal stability, MLM; format: in vitro ADME
[4] = Permeability Papp (AB) MDR1/MDCKII; conditions: In vitro MDR1-MDCKII permeability; for papp_a_to_b_mean: A to B; for perc_recovery_a_to_b_mean: recovery A to B
[5] = In vitro mouse liver microsomal stability
[6] = In vitro mouse liver microsomal stability, no cofactor
[7] = In vitro mouse liver microsomal stability; no cofactor

Compound: CC(C)(C)[C@H](Nc1ncnc2[nH]c(-c3cnn(CC(N)=O)c3)cc12)c1ccc2c(n1)OCCO2 (racemic) [ASAP-0008648]
- clint [1]: 36.0 µL/min/mg
- perc_remaining [1]: 55.0%
- t_half [1]: 46.0 min
- perc_remaining_no_cofactor [1]: 96.0%
- solubility_mean [2]: 48 µM (≈ 22.2 µg/mL)
- logd (LogD): 2.7
- clint [3, 5]: 31.0 µL/min/mg
- perc_remaining [3, 5]: 60.0%
- t_half [3, 5]: 53.1 min
- perc_remaining_no_cofactor [3, 6]: 90.0%
- papp_a_to_b_mean ([4]; mean): 0.822 ×10⁻⁶ cm/s
- perc_recovery_a_to_b_mean ([4]; mean): 88.8%

Compound: COCCNC(=O)c1c[nH]c2ncnc(N[C@H](c3ccc4c(c3)S(=O)(=O)CCC4)C(C)C)c12 (racemic) [ASAP-0008650]
- clint [1]: 540.0 µL/min/mg
- perc_remaining [1]: 0.0%
- t_half [1]: 3.1 min
- perc_remaining_no_cofactor [1]: 106.0%
- solubility_mean [2]: 378 µM (≈ 178 µg/mL)
- logd (LogD): 2.8
- clint [3, 5]: 888.0 µL/min/mg
- perc_remaining [3, 5]: 0.0%
- t_half [3, 5]: 1.9 min
- perc_remaining_no_cofactor [3, 6]: 99.0%
- papp_a_to_b_mean ([4]; mean): 1.62 ×10⁻⁶ cm/s
- perc_recovery_a_to_b_mean ([4]; mean): 73.3%

Compound: CC(C)[C@H](Nc1ncnc2[nH]c(-c3cnn(CC(N)=O)c3)cc12)c1ccc2c(c1)S(=O)(=O)CCC2 (racemic) [ASAP-0008679]
- clint [1]: 116.0 µL/min/mg
- perc_remaining [1]: 15.0%
- t_half [1]: 14.4 min
- perc_remaining_no_cofactor [1]: 95.0%
- solubility_mean [2]: 341 µM (≈ 168 µg/mL)
- logd (LogD): 1.9
- clint [3, 5]: 61.0 µL/min/mg
- perc_remaining [3, 5]: 37.0%
- t_half [3, 5]: 27.4 min
- perc_remaining_no_cofactor [3, 7]: 109.0%
- papp_a_to_b_mean ([4]; mean): 0.32 ×10⁻⁶ cm/s
- perc_recovery_a_to_b_mean ([4]; mean): 79.9%

Compound: CCNC(=O)c1cc2c(N[C@H](c3ccc4c(c3)S(=O)(=O)CCC4)C(C)C)ncnc2[nH]1 (racemic) [ASAP-0008711]
- clint [1]: 108.0 µL/min/mg
- perc_remaining [1]: 15.0%
- t_half [1]: 15.4 min
- perc_remaining_no_cofactor [1]: 98.0%
- solubility_mean [2]: 336 µM (≈ 148 µg/mL)
- logd (LogD): 2.8
- clint [3, 5]: 85.0 µL/min/mg
- perc_remaining [3, 5]: 21.0%
- t_half [3, 5]: 19.5 min
- perc_remaining_no_cofactor [3, 7]: 95.0%
- papp_a_to_b_mean ([4]; mean): 0.7 ×10⁻⁶ cm/s
- perc_recovery_a_to_b_mean ([4]; mean): 87.2%

Compound: CC(C)[C@H](Nc1ncnc(N)c1Cl)c1ccc2c(c1)S(=O)(=O)CCC2 (racemic) [ASAP-0010739]
- clint [1]: 79.0 µL/min/mg
- perc_remaining [1]: 27.0%
- t_half [1]: 21.0 min
- perc_remaining_no_cofactor [1]: 101.0%
- solubility_mean [2]: ≥ 400 µM
- logd (LogD): 2.4
- clint [3, 5]: 204.0 µL/min/mg
- perc_remaining [3, 5]: 4.0%
- t_half [3, 5]: 8.2 min
- perc_remaining_no_cofactor [3, 6]: 102.0%
- papp_a_to_b_mean ([4]; mean): 10.1 ×10⁻⁶ cm/s
- perc_recovery_a_to_b_mean ([4]; mean): 58.5%

Compound: CC(C)[C@H](Nc1ncnc2[nH]c(-c3cnn(CC(N)=O)c3)cc12)c1ccc2c(c1)OCCO2 (single isomer, unassigned) [ASAP-0008450]
- clint [1]: 238.0 µL/min/mg
- perc_remaining [1]: 2.0%
- t_half [1]: 7.0 min
- perc_remaining_no_cofactor [1]: 90.0%
- solubility_mean [2]: 332 µM (≈ 149 µg/mL)
- logd (LogD): 2.9
- clint [3, 5]: 42.0 µL/min/mg
- perc_remaining [3, 5]: 49.0%
- t_half [3, 5]: 40.0 min
- perc_remaining_no_cofactor [3, 6]: 98.0%
- papp_a_to_b_mean ([4]; mean): 1.87 ×10⁻⁶ cm/s
- perc_recovery_a_to_b_mean ([4]; mean): 90.9%

Compound: CC(C)(C)[C@H](Nc1ncnc2[nH]c(-c3cnn(CC(N)=O)c3)cc12)c1ccc2c(n1)OCCO2 (single isomer, unassigned) [ASAP-0011159]
- clint [1]: 27.0 µL/min/mg
- perc_remaining [1]: 64.0%
- t_half [1]: 60.8 min
- perc_remaining_no_cofactor [1]: 95.0%
- solubility_mean [2]: 372 µM (≈ 172 µg/mL)
- logd (LogD): 2.7
- clint [3, 5]: 10.0 µL/min/mg
- perc_remaining [3, 5]: 88.0%
- t_half [3, 5]: 162.3 min
- perc_remaining_no_cofactor [3, 6]: 116.0%
- papp_a_to_b_mean ([4]; no inhibitor): 1.02 ×10⁻⁶ cm/s
- perc_recovery_a_to_b_mean ([4]; no inhibitor): 95.8%

Compound: CC(C)[C@H](Nc1ncnc2[nH]cc(C(=O)NC3CC3)c12)c1ccc2c(c1)S(=O)(=O)CCC2 (single isomer, unassigned) [ASAP-0011247]
- clint [1]: 5.0 µL/min/mg
- perc_remaining [1]: 90.0%
- t_half [1]: 320.1 min
- perc_remaining_no_cofactor [1]: 112.0%
- solubility_mean [2]: 19 µM (≈ 8.62 µg/mL)
- logd (LogD): 3.0
- clint [3, 5]: 42.0 µL/min/mg
- perc_remaining [3, 5]: 50.0%
- t_half [3, 5]: 39.5 min
- perc_remaining_no_cofactor [3, 6]: 102.0%
- papp_a_to_b_mean ([4]; no inhibitor): 1.27 ×10⁻⁶ cm/s
- perc_recovery_a_to_b_mean ([4]; no inhibitor): 71.5%

Compound: CC(C)(C)[C@H](Nc1ncnc2[nH]c(-c3cnn(CC(N)=O)c3)cc12)c1ccc2c(c1)OCCO2 (single isomer, unassigned) [ASAP-0012332]
- clint [1]: 100.0 µL/min/mg
- perc_remaining [1]: 18.0%
- t_half [1]: 16.8 min
- perc_remaining_no_cofactor [1]: 109.0%
- solubility_mean [2]: 104 µM (≈ 48 µg/mL)
- logd (LogD): 3.1
- clint [3, 5]: 39.0 µL/min/mg
- perc_remaining [3, 5]: 54.0%
- t_half [3, 5]: 43.1 min
- perc_remaining_no_cofactor [3, 6]: 106.0%
- papp_a_to_b_mean ([4]; no inhibitor): 1.01 ×10⁻⁶ cm/s
- perc_recovery_a_to_b_mean ([4]; no inhibitor): 76.5%

Compound: CNC(=O)c1cc2c(N[C@H](c3ccc4c(c3)S(=O)(=O)CCC4)C(C)C)ncnc2[nH]1 (single isomer, unassigned) [ASAP-0012340]
- clint [1]: 67.0 µL/min/mg
- perc_remaining [1]: 33.0%
- t_half [1]: 25.0 min
- perc_remaining_no_cofactor [1]: 107.0%
- solubility_mean [2]: 374 µM (≈ 160 µg/mL)
- logd (LogD): 2.3
- clint [3, 5]: 47.0 µL/min/mg
- perc_remaining [3, 5]: 42.0%
- t_half [3, 5]: 35.3 min
- perc_remaining_no_cofactor [3, 6]: 106.0%
- papp_a_to_b_mean ([4]; no inhibitor): 0.891 ×10⁻⁶ cm/s
- perc_recovery_a_to_b_mean ([4]; no inhibitor): 74.2%

Compound: CC(C)[C@H](Nc1ncnc2[nH]c(-c3cnn(C)c3C#N)cc12)c1ccc2c(c1)NC(=O)CO2 (single isomer, unassigned) [ASAP-0013256]
- clint [1]: 52.0 µL/min/mg
- perc_remaining [1]: 44.0%
- t_half [1]: 32.3 min
- perc_remaining_no_cofactor [1]: 109.0%
- solubility_mean [2]: 19 µM (≈ 8.41 µg/mL)
- logd (LogD): 3.4
- clint [3, 5]: 147.0 µL/min/mg
- perc_remaining [3, 5]: 10.0%
- t_half [3, 5]: 11.3 min
- perc_remaining_no_cofactor [3, 6]: 102.0%
- papp_a_to_b_mean ([4]; no inhibitor): 2.35 ×10⁻⁶ cm/s
- perc_recovery_a_to_b_mean ([4]; no inhibitor): 78.9%

Compound: CC(C)[C@H](Nc1ncnc2[nH]c(-c3cnn(CC(=O)N(C)C)c3)cc12)c1ccc2c(c1)OCCO2 (single isomer, unassigned) [ASAP-0013833]
- clint [1]: 500.0 µL/min/mg
- perc_remaining [1]: 0.0%
- t_half [1]: 3.3 min
- perc_remaining_no_cofactor [1]: 115.0%
- solubility_mean [2]: 19 µM (≈ 9.04 µg/mL)
- logd (LogD): 2.9
- clint [3, 5]: 35.0 µL/min/mg
- perc_remaining [3, 5]: 54.0%
- t_half [3, 5]: 48.1 min
- perc_remaining_no_cofactor [3, 6]: 102.0%
- papp_a_to_b_mean ([4]; no inhibitor): 2.05 ×10⁻⁶ cm/s
- perc_recovery_a_to_b_mean ([4]; no inhibitor): 82.0%

Compound: CC(C)[C@H](Nc1ncnc2[nH]c(-c3cnn(CC(=O)N(C)C)c3)cc12)c1ccc2c(c1)OCCO2 (single isomer, unassigned) [ASAP-0013837]
- clint [1]: 108.0 µL/min/mg
- perc_remaining [1]: 18.0%
- t_half [1]: 15.4 min
- perc_remaining_no_cofactor [1]: 114.0%
- solubility_mean [2]: 205 µM (≈ 97.5 µg/mL)
- logd (LogD): 3.0
- clint [3, 5]: 45.0 µL/min/mg
- perc_remaining [3, 5]: 48.0%
- t_half [3, 5]: 36.8 min
- perc_remaining_no_cofactor [3, 6]: 114.0%
- papp_a_to_b_mean ([4]; no inhibitor): 1.62 ×10⁻⁶ cm/s
- perc_recovery_a_to_b_mean ([4]; no inhibitor): 87.9%

Compound: CC(C)[C@H](CO)Nc1ncnc2[nH]ccc12 [ASAP-0000453]
- clint [1]: 6.0 µL/min/mg
- perc_remaining [1]: 119.0%
- t_half [1]: 289.0 min
- perc_remaining_no_cofactor [1]: 99.0%
- solubility_mean [2]: ≥ 400 µM
- logd (LogD): 1.69
- clint [3, 5]: 10.0 µL/min/mg
- perc_remaining [3, 5]: 90.0%
- t_half [3, 5]: 171.1 min
- perc_remaining_no_cofactor [3, 7]: 93.0%
- papp_a_to_b_mean ([4]; mean): 13.1 ×10⁻⁶ cm/s
- perc_recovery_a_to_b_mean ([4]; mean): 89.0%

Compound: CNC(=O)c1c[nH]c2ncnc(N[C@@H](c3ccc4c(c3)OCCO4)C(C)C)c12 [ASAP-0008406]
- clint [1]: 79.0 µL/min/mg
- perc_remaining [1]: 27.0%
- t_half [1]: 21.2 min
- perc_remaining_no_cofactor [1]: 113.0%
- solubility_mean [2]: 319 µM (≈ 122 µg/mL)
- logd (LogD): 3.6
- clint [3, 5]: 88.0 µL/min/mg
- perc_remaining [3, 5]: 20.0%
- t_half [3, 5]: 19.0 min
- perc_remaining_no_cofactor [3, 7]: 95.0%
- papp_a_to_b_mean ([4]; mean): 16.2 ×10⁻⁶ cm/s
- perc_recovery_a_to_b_mean ([4]; mean): 92.4%

Compound: CC(C)[C@H](Nc1ncnc2[nH]ccc12)c1ccc2c(c1)NC(=O)CO2 [ASAP-0008430]
- clint [1]: 10.0 µL/min/mg
- perc_remaining [1]: 86.0%
- t_half [1]: 160.3 min
- perc_remaining_no_cofactor [1]: 95.0%
- solubility_mean [2]: 371 µM (≈ 125 µg/mL)
- logd (LogD): 1.8
- clint [3, 5]: 37.0 µL/min/mg
- perc_remaining [3, 5]: 54.0%
- t_half [3, 5]: 45.1 min
- perc_remaining_no_cofactor [3, 7]: 89.0%
- papp_a_to_b_mean ([4]; mean): 3.4 ×10⁻⁶ cm/s
- perc_recovery_a_to_b_mean ([4]; mean): 90.0%

Compound: CC(C)[C@H](Nc1ncnc2[nH]c(-c3cnn(CC(N)=O)c3)cc12)c1ccc2c(c1)OCCO2 [ASAP-0008449]
- clint [1]: 47.0 µL/min/mg
- perc_remaining [1]: 43.0%
- t_half [1]: 35.4 min
- perc_remaining_no_cofactor [1]: 102.0%
- solubility_mean [2]: 280 µM (≈ 125 µg/mL)
- logd (LogD): 2.9
- clint [3, 5]: 16.0 µL/min/mg
- perc_remaining [3, 5]: 80.0%
- t_half [3, 5]: 103.7 min
- perc_remaining_no_cofactor [3, 6]: 104.0%
- papp_a_to_b_mean ([4]; no inhibitor): 1.09 ×10⁻⁶ cm/s
- perc_recovery_a_to_b_mean ([4]; no inhibitor): 87.8%
